From ChEMBL document CHEMBL1201862, “PubChem BioAssay data set” (2004)
Activity calls are given as the source filed them.

Tests used:
[1] = target: Heat shock 70 kDa protein 1A (Homo sapiens, UniProt P0DMV8); assay: Hsp70 inhibitors, SAR follow-up, biochemical, fluorescence polarization (AID 1072)
[2] = target: Heat shock cognate 71 kDa protein (Homo sapiens, UniProt P11142); assay: In Vitro Hsc70 Dose Response Fluorescence Polarization Assay. [Related pubchem assays: 1072 ]
[3] = target: Acyl-homoserine lactone acylase PvdQ (Pseudomonas aeruginosa (strain LESB58), UniProt Q9I194); assay: P. aeruginosa PvdQ acylase inhibitors, dose response, biochemical, fluorescence, plate reader and imaging, cherry-picks (AID 493231)
Chaperone protein dnaK = Chaperone protein dnaK (Escherichia coli, UniProt C3TRK2); assay: DnaK beta-domain binding affinity, SAR follow-up, orthogonal assay for DnaK modulator project, biophysical, isothermal titration calorimetry, full-length DnaK (AID 1495)
Staphylococcus aureus = assay: Inhibitors of Bacterial Quorum Sensing Structure Activity Relationship (SAR) Analysis: Dose Response Assay. [Related pubchem assays: 700, 527 ]; format: functional, organism-based
Genome polyprotein = Genome polyprotein (dengue virus type 2, UniProt P29990); assay: Dengue-2 NS5 methyltransferase inhibitors, primary screen, biochemical, confirmation dose response (AID 588689); format: functional
Cytochrome P450 2D6 = Cytochrome P450 2D6 (Homo sapiens, UniProt P10635); assay: qHTS Assay for Inhibitors and Substrates of Cytochrome P450 2D6. [Related pubchem assays: 410 ]; format: ADME; settings: read-out: Potency
[4] = target: Voltage-gated N-type calcium channel alpha-1B subunit/Amyloid beta A4 precursor protein-binding family A member 1 (Homo sapiens, UniProt Q00975+Q02410); assay: disruptors of Mint-PDZ/N-type channel peptide interaction – biochemical, HTRF, set 2, SAR follow-up (AID 434980); format: functional
[5] = target: Melanin-concentrating hormone receptor 1 (Homo sapiens, UniProt Q99705); assay: Late-stage fluorescence-based counterscreen for antagonists of the G-protein coupled receptor 7 (GPR7): cell-based dose response assay to identify antagonists of the melanin-concentrating hormone receptor 1 (MCHR1). [Related pubchem assays (depositor defined):AID1861, AID1880, AID1952, AID2148, AID2251, AID2257, AID485339]; format: functional;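 further: stimulated with 30 nM MCH peptide agonist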
Vero [6] = assay: Vero E6 cell cytotoxicity, SAR follow-up, cytotoxicity control for West Nile virus antiviral project, synthesized analogs (AID 2244); format: functional; settings: Chlorocebus sabaeus
Vero [7] = assay: cytotoxicity of synthesized analogs in Vero cells, SAR follow-up, cytotoxicity control for West Nile virus antiviral project, cell-based, set II (AID 2402); format: functional; settings: Chlorocebus sabaeus
[8] = target: T1, Eukaryotic translation initiation factor 2-alpha kinase 3 (Homo sapiens, UniProt Q9NZJ5); assay: Dose response cell-based high-throughput screening assay to measure PERK inhibition. [Related pubchem assays: 1416 ]; format: functional
[9] = target: T1, Eukaryotic translation initiation factor 2-alpha kinase 3; assay: Counterscreen assay for PERK inhibitors: Dose response cell-based high throughput screening assay to measure inhibition of PERK at 6 hours. [Related pubchem assays: 1522, 1416 ]; format: functional
[10] = inhibitors of intracellular T. cruzi replication, confirmation, NIH3T3 host cells, beta-gal luminescence (AID 2044); format: functional, cell-based;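 further: intracellular parasites grown in NIH/3T3 mouse fibroblasts as host cells; luminescent beta-galactosidase reporter signal from transgenic T. cruzi replicating inside host cells; inhibitors lower the luminescence signal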
[11] = target: Serine/threonine-protein phosphatase (Homo sapiens, UniProt Q9BPW0); assay: Counterscreen for inhibitors of PP1: fluorescence-based biochemical high throughput dose response assay to identify inhibitors of Protein Phosphatase 5 (PP5). [Related pubchem assays: 2034 (Summary (PP5 inhibitors)), 1987 (PP5 inhibitors in singlate), 2235 (PP1 inhibitors in singlate)]
Streptococcus = assay: Group A Streptococcus viability loss, dose response, counter-screen for streptokinase expression inhibitor project, luminescence, BacTiterGlo (AID 1915); format: functional, organism-based;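 further: potency for reduction of bacterial viability or growth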
[12] = cytotoxicity toward NIH3T3 fibroblasts, dose response, counter-screen, cell-based, ATP luminescence, mouse fibroblasts (AID 2010); format: functional;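 further: cells exposed to compound for about 90 hours before reading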
[13] = tested on: Streptococcus sp. 'group A'; assay: growth inhibition of control SK(-) GAS strain, dose response, counter-screen for streptokinase expression inhibitor project, luminescence, kanamycin, BacTiterGlo, confirmation (AID 1900); format: functional, organism-based
Streptokinase A = target: T2, Streptokinase A (Streptococcus pyogenes serotype M1, UniProt P10520); assay: S. pyogenes streptokinase expression inhibitors, potency, dose response, plasminogen activation absorbance, OD405 (AID 1914); format: functional, Streptococcus pyogenes M1 GAS;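 further: secreted streptokinase activity via plasminogen activation per viability signal from cell pellet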
T2 sequence (P10520 whole entry): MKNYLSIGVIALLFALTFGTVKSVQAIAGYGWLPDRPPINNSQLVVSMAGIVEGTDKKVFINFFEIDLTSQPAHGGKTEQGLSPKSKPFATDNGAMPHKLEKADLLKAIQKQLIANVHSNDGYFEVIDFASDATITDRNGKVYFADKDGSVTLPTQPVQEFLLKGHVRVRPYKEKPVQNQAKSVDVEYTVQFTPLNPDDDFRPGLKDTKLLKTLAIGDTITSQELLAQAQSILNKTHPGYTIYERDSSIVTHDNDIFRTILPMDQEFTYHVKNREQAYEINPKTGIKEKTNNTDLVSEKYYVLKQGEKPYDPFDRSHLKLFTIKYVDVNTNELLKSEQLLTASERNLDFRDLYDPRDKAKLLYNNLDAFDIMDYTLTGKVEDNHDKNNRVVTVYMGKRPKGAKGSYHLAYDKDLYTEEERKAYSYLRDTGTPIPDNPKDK

[14] = target: Serine/threonine-protein phosphatase PP1-alpha catalytic subunit (Homo sapiens, UniProt P62136); assay: PP1 phosphatase inhibitors, dose response, biochemical, fluorescence (AID 2403);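 further: phosphatase turnover of OMFP into fluorescent 3-O-methylfluorescein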
Chain of Serine/threonine-protein phosphatase PP1-alpha catalytic subunit (P62136 whole entry): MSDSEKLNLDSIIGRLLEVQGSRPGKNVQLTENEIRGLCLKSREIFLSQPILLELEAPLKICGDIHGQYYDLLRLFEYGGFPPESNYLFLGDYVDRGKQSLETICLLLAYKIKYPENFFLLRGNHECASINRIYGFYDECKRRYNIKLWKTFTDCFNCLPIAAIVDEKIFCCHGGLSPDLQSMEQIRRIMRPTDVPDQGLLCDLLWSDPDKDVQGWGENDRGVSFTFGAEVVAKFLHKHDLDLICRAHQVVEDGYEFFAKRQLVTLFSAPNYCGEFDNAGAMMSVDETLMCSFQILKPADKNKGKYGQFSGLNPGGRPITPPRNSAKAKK

T1 sequence (Q9NZJ5 whole entry): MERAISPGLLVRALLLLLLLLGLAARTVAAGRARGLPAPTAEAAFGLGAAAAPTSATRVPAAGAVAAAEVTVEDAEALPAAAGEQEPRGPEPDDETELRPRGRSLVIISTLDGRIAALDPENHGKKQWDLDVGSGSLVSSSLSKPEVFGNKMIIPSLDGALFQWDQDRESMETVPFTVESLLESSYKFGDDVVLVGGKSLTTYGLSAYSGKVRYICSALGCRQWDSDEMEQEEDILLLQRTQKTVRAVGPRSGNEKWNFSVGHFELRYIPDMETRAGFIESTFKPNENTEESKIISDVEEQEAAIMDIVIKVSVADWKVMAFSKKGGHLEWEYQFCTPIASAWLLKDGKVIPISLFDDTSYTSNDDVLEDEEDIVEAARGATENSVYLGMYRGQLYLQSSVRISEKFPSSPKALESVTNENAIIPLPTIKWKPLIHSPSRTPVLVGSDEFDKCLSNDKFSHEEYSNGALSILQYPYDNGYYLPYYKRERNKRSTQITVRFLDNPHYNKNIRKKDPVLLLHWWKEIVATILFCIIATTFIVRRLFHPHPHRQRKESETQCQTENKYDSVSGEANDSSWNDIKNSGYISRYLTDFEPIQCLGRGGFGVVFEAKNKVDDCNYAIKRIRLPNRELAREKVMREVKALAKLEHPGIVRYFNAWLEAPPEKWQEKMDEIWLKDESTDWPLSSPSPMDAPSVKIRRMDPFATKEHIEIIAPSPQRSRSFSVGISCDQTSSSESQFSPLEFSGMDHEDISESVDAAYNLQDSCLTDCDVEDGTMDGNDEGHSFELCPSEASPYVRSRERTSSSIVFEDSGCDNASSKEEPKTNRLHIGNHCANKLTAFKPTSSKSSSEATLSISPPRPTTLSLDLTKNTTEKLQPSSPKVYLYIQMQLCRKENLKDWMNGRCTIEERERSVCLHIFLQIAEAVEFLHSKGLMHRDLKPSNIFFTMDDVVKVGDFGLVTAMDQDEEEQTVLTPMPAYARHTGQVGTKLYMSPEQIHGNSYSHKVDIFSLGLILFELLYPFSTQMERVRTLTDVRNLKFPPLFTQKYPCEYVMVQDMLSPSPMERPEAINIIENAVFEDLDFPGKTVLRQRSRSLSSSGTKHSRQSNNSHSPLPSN
Chain of Chaperone protein dnaK (C3TRK2 whole entry): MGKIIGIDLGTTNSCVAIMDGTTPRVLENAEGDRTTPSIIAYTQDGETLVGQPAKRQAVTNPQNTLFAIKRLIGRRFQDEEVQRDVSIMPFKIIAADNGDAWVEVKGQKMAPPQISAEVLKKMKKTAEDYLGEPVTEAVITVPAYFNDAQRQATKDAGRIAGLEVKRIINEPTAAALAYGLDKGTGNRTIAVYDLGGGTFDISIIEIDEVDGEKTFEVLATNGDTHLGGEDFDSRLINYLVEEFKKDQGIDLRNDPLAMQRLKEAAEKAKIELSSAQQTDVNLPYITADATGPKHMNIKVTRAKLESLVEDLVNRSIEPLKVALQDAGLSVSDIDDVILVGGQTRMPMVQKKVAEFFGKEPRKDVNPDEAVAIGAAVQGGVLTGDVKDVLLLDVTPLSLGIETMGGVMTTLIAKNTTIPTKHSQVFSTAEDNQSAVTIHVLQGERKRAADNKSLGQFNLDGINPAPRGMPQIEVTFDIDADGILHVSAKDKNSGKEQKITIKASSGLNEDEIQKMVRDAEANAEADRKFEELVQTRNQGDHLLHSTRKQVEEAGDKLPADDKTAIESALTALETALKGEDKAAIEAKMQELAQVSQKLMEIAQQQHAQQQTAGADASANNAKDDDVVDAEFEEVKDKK
Chain of Serine/threonine-protein phosphatase (Q9BPW0 whole entry): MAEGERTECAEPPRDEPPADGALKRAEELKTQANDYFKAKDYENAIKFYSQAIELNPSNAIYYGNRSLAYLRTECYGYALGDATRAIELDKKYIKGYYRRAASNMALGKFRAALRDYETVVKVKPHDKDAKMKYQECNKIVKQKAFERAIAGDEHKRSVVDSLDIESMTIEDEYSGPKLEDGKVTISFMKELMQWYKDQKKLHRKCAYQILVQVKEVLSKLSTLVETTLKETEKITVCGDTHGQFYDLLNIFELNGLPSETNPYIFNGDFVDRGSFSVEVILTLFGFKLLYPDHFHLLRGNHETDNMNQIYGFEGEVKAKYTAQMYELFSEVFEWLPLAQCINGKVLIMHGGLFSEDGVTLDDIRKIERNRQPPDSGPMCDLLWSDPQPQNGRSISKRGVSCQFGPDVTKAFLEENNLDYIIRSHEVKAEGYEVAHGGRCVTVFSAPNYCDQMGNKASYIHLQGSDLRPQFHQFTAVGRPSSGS
Chain of Melanin-concentrating hormone receptor 1 (Q99705 whole entry): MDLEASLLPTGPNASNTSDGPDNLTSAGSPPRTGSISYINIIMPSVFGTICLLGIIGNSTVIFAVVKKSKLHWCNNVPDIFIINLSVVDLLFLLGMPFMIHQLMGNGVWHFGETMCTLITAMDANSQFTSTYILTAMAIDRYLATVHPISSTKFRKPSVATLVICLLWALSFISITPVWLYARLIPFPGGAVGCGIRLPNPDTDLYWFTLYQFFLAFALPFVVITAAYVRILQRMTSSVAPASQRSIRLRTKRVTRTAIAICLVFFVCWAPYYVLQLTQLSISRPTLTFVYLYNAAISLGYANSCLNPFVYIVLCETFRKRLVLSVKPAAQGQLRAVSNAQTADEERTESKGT
Chain of Acyl-homoserine lactone acylase PvdQ (Q9I194 24-193 limits assumed): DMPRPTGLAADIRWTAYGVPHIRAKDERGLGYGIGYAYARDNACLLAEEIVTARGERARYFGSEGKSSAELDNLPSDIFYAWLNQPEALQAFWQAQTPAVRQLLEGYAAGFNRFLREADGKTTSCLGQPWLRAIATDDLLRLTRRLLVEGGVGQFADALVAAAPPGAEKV
Chain of Acyl-homoserine lactone acylase PvdQ (Q9I194 217-762 limits assumed): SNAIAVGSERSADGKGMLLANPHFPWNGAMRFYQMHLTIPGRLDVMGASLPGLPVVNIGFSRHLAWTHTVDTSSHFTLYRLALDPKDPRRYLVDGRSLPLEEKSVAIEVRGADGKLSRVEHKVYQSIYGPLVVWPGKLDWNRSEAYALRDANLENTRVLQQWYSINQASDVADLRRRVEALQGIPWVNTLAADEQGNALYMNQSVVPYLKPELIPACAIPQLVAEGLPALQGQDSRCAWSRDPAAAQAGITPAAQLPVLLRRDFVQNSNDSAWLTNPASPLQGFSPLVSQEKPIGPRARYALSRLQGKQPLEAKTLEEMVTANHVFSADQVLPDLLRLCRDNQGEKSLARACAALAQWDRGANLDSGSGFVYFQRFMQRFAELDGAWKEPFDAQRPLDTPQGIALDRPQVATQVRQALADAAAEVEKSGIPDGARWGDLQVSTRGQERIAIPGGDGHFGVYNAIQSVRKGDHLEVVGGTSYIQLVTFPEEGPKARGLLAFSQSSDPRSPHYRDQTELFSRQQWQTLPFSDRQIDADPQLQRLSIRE
Chain of Genome polyprotein (P29990 2492-3391 limits assumed): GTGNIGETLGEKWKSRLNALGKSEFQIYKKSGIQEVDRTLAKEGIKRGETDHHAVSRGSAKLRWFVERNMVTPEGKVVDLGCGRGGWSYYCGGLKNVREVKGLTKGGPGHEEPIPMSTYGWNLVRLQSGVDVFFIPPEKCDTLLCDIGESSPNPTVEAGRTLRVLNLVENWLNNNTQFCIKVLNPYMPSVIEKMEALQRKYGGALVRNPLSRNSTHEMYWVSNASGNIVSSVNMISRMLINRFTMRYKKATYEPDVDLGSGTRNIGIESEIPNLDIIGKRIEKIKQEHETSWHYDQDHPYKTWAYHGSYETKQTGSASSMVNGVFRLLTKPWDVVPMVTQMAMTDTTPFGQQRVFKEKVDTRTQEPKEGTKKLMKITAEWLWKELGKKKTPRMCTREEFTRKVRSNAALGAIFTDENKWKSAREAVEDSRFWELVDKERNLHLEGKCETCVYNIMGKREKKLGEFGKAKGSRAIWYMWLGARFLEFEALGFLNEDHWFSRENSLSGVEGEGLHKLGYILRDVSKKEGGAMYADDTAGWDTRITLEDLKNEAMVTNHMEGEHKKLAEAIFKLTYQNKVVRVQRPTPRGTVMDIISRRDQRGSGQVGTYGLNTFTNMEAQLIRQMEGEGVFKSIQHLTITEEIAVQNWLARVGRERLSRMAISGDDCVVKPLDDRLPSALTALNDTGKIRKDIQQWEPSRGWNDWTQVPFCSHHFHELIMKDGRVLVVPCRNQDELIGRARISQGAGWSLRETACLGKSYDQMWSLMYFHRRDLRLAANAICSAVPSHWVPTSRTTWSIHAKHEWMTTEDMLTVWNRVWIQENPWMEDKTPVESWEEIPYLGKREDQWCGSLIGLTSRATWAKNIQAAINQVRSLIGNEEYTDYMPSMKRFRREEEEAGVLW

O=C(O)C1CCCCC1c1c2ccc(=O)c(O)c-2oc2c(O)c(O)ccc12 (stereo not given)
IC50 [1]: 9.85 µM (active)
IC50 [2]: 42.4 µM (active)

CC1SCC(NC(=O)c2cccc(Cl)c2)CS1 (stereo not given)
AC50 [3]: > 100 µM (inactive)

O=C(Nc1ccc2[nH]ccc2c1)c1cccs1
Kd (Chaperone protein dnaK): 12.7 µM (active)

CC(C)c1ccc(S(=O)(=O)c2nnn3c2nc(O)c2ccccc23)cc1 [SAVIRIN]
IC50 (Staphylococcus aureus): 0.25 µM (active)
IC50 (Genome polyprotein): 51.5 µM (active)

COc1ccc2c(=O)cc(-c3ccc(O)cc3)oc2c1
AC50 (Cytochrome P450 2D6): 15.8 µM (inconclusive)

O=C(Nc1ncc(-c2ccccc2)o1)c1cc(-c2ccco2)nc2ccccc12
IC50 [4]: > 56.8 µM (inactive)

COc1ccc(Oc2c(Br)cnn(-c3ccc(C(C)C)cc3)c2=O)cc1
IC50 [5]: 0.72 µM (active)

CCCN(C(=O)c1ccccc1Cl)c1nc(-c2ccc(OC)cc2)cs1
CC50 (Vero [6]): > 40 µM (active)
CC50 (Vero [7]): 63.2 µM (active)

COc1cc([N+](=O)[O-])cc2sc(NC(=O)C(C)(C)C)nc12
EC50 [8]: > 55.7 µM (not active)
EC50 [9]: > 55.7 µM (not active)

COc1ccc(OCCCC(=O)Nc2nc(-c3ccccn3)cs2)cc1
EC50 [10]: 3.24 µM (active)
IC50 [11]: > 67 µM (not active)
EC50 (Streptococcus): > 150 µM (not active)
EC50 [12]: 4.35 µM (active)
EC50 [13]: 31.2 µM (active)
EC50 (Streptokinase A): > 150 µM (not active)
IC50 [14]: 4.59 µM (active)
